For assay [1], the system named is Klebsiella pneumoniae strain NCTC 9633 (ATCC #13883). Put plainly: bacterial proliferation assay, K. pneumoniae. The class given is cell-based. The conditions noted are these: read-out: Bacterial Proliferation EC50 K. pneumoniae. How it is done: (§1) All compounds were evaluated for inhibiting the proliferation of E. coli and each of the ESKAPE bacteria. Results presented represent the averages of EC50 values obtained from at least four replicates. Evaluating compounds for inhibition of bacterial cell proliferation.
(§2) Growth Media: E. coli were grown with LB medium and all ESKAPE bacteria were grown in Brain Heart Infusion (BHI) medium (Becton, Dickinson and Company), with all liquid cultures supplemented with 25 mg/L Ca^2+ and 12.5 mg/L Mg^2+ to mimic physiological free concentrations of these cations. A 10 mg/mL Ca^2+ stock solution was prepared by dissolving 1.84 g of CaCl2.2H2O in 50 mL of deionized water, and a 10 mg/mL Mg^2+ stock solution was prepared by dissolving 4.18 g of MgCl2.6H2O in 50 mL deionized water—filter sterilized using 0.2 μm cellulose-acetate filters. 2.5 mL of the sterile 10 mg/mL Ca^2+ stock and 1.25 mL of the sterile 10 mg/mL Mg^2+ stock solutions were added per 1 L of autoclaved LB or BHI media to obtain 25 mg/L Ca^2+ and 12.5 mg/L Mg^2+ ions, respectively.
(§3) General Assay Protocol: Stock bacterial cultures were streaked onto LB or BHI agar plates and grown overnight at 37° C. Fresh aliquots of cation supplemented media were inoculated with single bacterial colonies and the cultures were grown overnight at 37° C. with shaking (240 rpm). The following morning, cultures were diluted 10-fold into fresh media and grown at 37° C. until bacteria had reached mid-log phase growth (OD600˜0.4-0.6). The cultures were then diluted into fresh media to achieve final OD600 readings of 0.017. Aliquots of these diluted cultures (30 μL) were added to clear, flat-bottom 384-well polystyrene plates that were previously stamped with 0.5 μL of test compounds in 20 μL of media (yielding initial OD600=0.01 bacterial cultures). All compounds were tested in dose-response with concentration ranges during the proliferation assays from 100 μM to 46 nM (3-fold dilution series). A second set of baseline control plates were prepared analogously, but without any bacteria added, to correct for possible compound absorbance and/or precipitation. […] Plates were then read at 600 nm using a Molecular Devices SpectraMax Plus384 microplate reader. […] Results presented represent the averages of EC50 values obtained from at least four replicates.
(§4) Evaluating analogs for inhibiting the growth of E. coli and the ESKAPE bacteria. Analogs were initially tested for antibacterial efficacy against representative strains of antibiotic-sensitive E. coli and the ESKAPE bacteria. To determine compound efficacy, bacterial proliferation assays were carried out in liquid media culture supplemented with physiological concentrations of free calcium and magnesium cations. For these assays, bacterial cultures (OD600=0.01) were exposed to test compounds in 8-point, 3-fold dilution series (100 μM to 46 nM concentration range), in 384-well plates. After addition of compounds to cultures, the plates were sealed with Breathe-Easy gas permeable membranes and allowed to grow to mid-log phase (OD600˜0.4-0.6), whereupon final OD600 readings were taken to assess for bacterial growth and inhibition.

The subject of assay [2] is Staphylococcus aureus strain Seattle 1945 (ATCC #25923). Put plainly: bacterial proliferation assay, S. aureus. In kind it is cell-based. To be noted: read-out: Bacterial Proliferation EC50 S. aureus. How it is done:
as §1, §2, §3, §4

In assay [3] the test system is Acinetobacter baumannii strain 2208 (ATCC 19606). The experiment in a line: bacterial proliferation assay, A. baumannii. The class given is cell-based. To be noted: ATCC19606, read-out: Bacterial Proliferation EC50 A. baumannii. How it is done: as §1, §2, §3, §4
Assay [4] deals with T1, E. coli GroEL (Escherichia coli, UniProt P0A6F5).
T1 construct: made in house; host or cells: NEB 5-alpha E. coli
The experiment in a line: GroEL-mediated ATPase assay. In kind it is biochemical. How it is done:
Evaluating compounds for inhibition in the GroEL-mediated ATPase assay. All compounds were evaluated for inhibiting E. coli GroEL-mediated ATPase activity as per our previously reported procedure although employing only GroEL in solution and not containing GroES or denatured MDH. Evaluating compounds for inhibition in the GroEL-mediated ATPase assay.
Reagent preparation: For this assay, four primary reagent solutions were prepared: 1) GroEL protein solution; 2) ATP initiation solution; 3) EDTA quench solution; 4) malachite green reporter solution. The GroEL protein solution consisted of 100 nM of GroEL in folding buffer (50 mM Tris-HCl, pH 7.4, 50 mM KCl, 10 mM MgCl2, and 1 mM DTT), which was prepared immediately prior to dispensing into the assay plates. For the ATP initiation solution, ATP solid was diluted into folding buffer to a final concentration of 2 mM. Quench solution contained 300 mM EDTA (pH 8.0). The malachite green reporter solution contained 0.034% w/v malachite green, 1.04% w/v ammonium molybdate, 1% Tween-20, and 1 M HCl dissolved in H2O.
Assay Protocol: First, 10 μL aliquots of the GroEL protein solution were dispensed into clear, flat-bottom 384-well polystyrene plates. […] After incubating for 45 minutes at 37° C., 10 μL of the EDTA quench solution was added to quench the reaction cycle. Then, 60 μL of the malachite green reporter solution was added and the plates were incubated at room temperature for 10 min. The absorbance of the malachite green-phosphate complex was measured at 600 nm using a Molecular Devices SpectraMax Plus384 microplate reader. A second set of baseline control plates were prepared analogously, but without GroEL protein solution, to correct for possible interference from compound absorbance or turbidity. […] Results presented represent the averages of IC50 values obtained from at least four replicates.
Evaluating analogs for inhibiting GroEL-mediated ATPase activity. […] Thus, we further tested analogs in a well-established GroEL ATPase assay that employed malachite green to monitor inorganic phosphate liberated as GroEL hydrolyzed ATP. Briefly, a solution of GroEL was incubated with test compounds (8-point, 3-fold dilution series) and the assay was initiated by addition of ATP. After incubating for 45 minutes, the ATPase reaction was quenched by the addition of EDTA. Malachite green was then added to the assay to bind and detect free phosphates in solution (absorbance detection at k=600 nm). If analogs inhibited ATPase activity, then there would be no free phosphates for malachite green to bind, leading to minimal absorbance at 600 nm.

The mark [5] stands for this setting: Staphylococcus aureus, ATCC25923.

As usually defined, the IC50 is the concentration needed to halve the response being measured.

Each structure is given as a SMILES string. Where two headings read alike, the source gives them in different places. Some results are limits rather than exact numbers.

T1 sequence (P0A6F5 2-548): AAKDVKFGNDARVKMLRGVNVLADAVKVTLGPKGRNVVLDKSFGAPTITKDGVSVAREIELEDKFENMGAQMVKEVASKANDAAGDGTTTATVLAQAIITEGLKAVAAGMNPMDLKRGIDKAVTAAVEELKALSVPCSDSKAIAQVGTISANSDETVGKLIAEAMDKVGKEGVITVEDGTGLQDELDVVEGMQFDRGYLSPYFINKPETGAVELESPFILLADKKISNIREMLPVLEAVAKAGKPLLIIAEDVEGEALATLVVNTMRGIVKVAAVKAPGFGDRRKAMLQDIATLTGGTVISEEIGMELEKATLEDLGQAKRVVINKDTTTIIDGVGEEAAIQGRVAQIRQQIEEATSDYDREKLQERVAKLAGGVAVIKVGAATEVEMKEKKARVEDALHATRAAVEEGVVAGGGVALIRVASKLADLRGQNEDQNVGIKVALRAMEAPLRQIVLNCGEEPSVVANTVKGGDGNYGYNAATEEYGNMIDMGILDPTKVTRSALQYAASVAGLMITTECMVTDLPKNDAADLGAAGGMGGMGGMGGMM

Regarding `COc1ccc(C(=O)NN)cc1` [Compound 42, reference compound], the EC50 in assay [1] (Klebsiella pneumoniae), in assay [2] (setting [5]) and in assay [3] was > 100 µM each time. Moreover, the IC50 in assay [4] is > 250 µM.

For `COc1ccc(C(=O)N/N=C/c2cccc3ccccc23)cc1` [Compound 33, 4-methoxy-N′-(naphthalen-1-ylmethylene)benzohydrazide], the EC50 in assay [1] (Klebsiella pneumoniae), in assay [2] (setting [5]) and in assay [3] was > 100 µM each time. In addition, in assay [4], the IC50 was > 250 µM.

For `O=C(N/N=C/c1ccc([N+](=O)[O-])o1)c1cccc2ccccc12` [Compound 22, N′-((5-nitrofuran-2-yl)methylene)-1-naphthohydrazide], the EC50 was > 100 µM in assay [1] (Klebsiella pneumoniae), 6 µM in assay [2] (setting [5]) and > 100 µM in assay [3]. For the same compound, the IC50 in assay [4] is > 250 µM.

Take `O=C(N/N=C/c1ccc(O)c2ncccc12)c1ccc(O)cc1` [Compound 7, 4-hydroxy-N′-((8-hydroxyquinolin-5-yl)methylene)benzohydrazide]: the EC50 was 87 µM in assay [1] (Klebsiella pneumoniae), 48 µM in assay [2] (setting [5]) and 71 µM in assay [3]. Also, the IC50 in assay [4] was > 250 µM.

Take `O=C(N/N=C/c1ccc([N+](=O)[O-])o1)c1ccc(NS(=O)(=O)c2cccs2)cc1` [Compound 26, N-(4-(2-((5-nitrofuran-2-yl)methylene)hydrazine-1-carbonyl)phenyl)thiophene-2-sulfonamide]: the EC50 was > 100 µM in assay [1] (Klebsiella pneumoniae), 11 µM in assay [2] (setting [5]) and > 100 µM in assay [3]. The IC50 in assay [4] is > 250 µM.

For the compound `COc1ccc(C(=O)N/N=C/c2ccc(O)cc2)cc1` [Compound 35, N′-(4-hydroxybenzylidene)-4-methoxybenzohydrazide], the EC50 in assay [1] (Klebsiella pneumoniae), in assay [2] (setting [5]) and in assay [3] was > 100 µM each time. Further, the IC50 in assay [4] is > 250 µM.

As to `O=C(N/N=C/c1cccc2ncccc12)c1ccccc1` [Compound 32, N′-(quinolin-5-ylmethylene)benzohydrazide], the EC50 in assay [1] (Klebsiella pneumoniae), in assay [2] (setting [5]) and in assay [3] was > 100 µM throughout. For the same compound, in assay [4], the IC50 is > 250 µM.

Turning to `O=C(N/N=C/c1ccc(O)cc1)c1ccccc1` [Compound 36, N′-(4-hydroxybenzylidene)benzohydrazide], the EC50 in assay [1] (Klebsiella pneumoniae), in assay [2] (setting [5]) and in assay [3] was > 100 µM in each case. For the same compound, the IC50 in assay [4] is > 250 µM.

In the case of `O=Cc1ccc(O)c2ncccc12` [Compound 40, reference compound], the EC50 in assay [1] (Klebsiella pneumoniae) came to 15 µM; in assay [2] (setting [5]) it was 19 µM; in assay [3], 11 µM. Further, in assay [4] (GroEL only, no GroES or dMDH, read-out: GroEL ATPase IC50), the half-inhibitory concentration (IC50) was > 250 µM.

Consider `CCOc1ccc(S(=O)(=O)Nc2ccc(C(=O)N/N=C/c3ccc(O)c4ncccc34)cc2)cc1` [Compound 15, 4-ethoxy-N-(4-(2-((8-hydroxyquinolin-5-yl)methylene)hydrazine-1-carbonyl)phenyl)benzenesulfonamide], for which the EC50 in assay [1] (Klebsiella pneumoniae), in assay [2] (setting [5]) and in assay [3] was > 100 µM throughout. Further, in assay [4], the concentration for half-maximal inhibition (IC50) was > 250 µM.

As to `O=C(N/N=C/c1ccc(O)c2ncccc12)c1ccccc1` [Compound 5, N′-((8-hydroxyquinolin-5-yl)methylene)benzohydrazide], the EC50 in assay [1] (Klebsiella pneumoniae) was found to be 82 µM; in assay [2] (setting [5]), 69 µM; in assay [3] it was 56 µM. Besides, the 50% inhibitory concentration (IC50) in assay [4] was > 250 µM.

For the compound `O=C(N/N=C/c1ccc(O)c2ncccc12)c1ccccc1Oc1ccccc1` [Compound 10, N′-((8-hydroxyquinolin-5-yl)methylene)-2-phenoxybenzohydrazide], the EC50 in assay [1] (Klebsiella pneumoniae), in assay [2] (setting [5]) and in assay [3] was > 100 µM in each case. Further, the IC50 in assay [4] was > 250 µM.

Consider `O=C(N/N=C/c1ccc(O)c2ncccc12)c1ccc(NS(=O)(=O)c2cccs2)cc1` [Compound 13, N-(4-(2-((8-hydroxyquinolin-5-yl)methylene)hydrazine-1-carbonyl)phenyl)thiophene-2-sulfonamide], for which the EC50 in assay [1] (Klebsiella pneumoniae), in assay [2] (setting [5]) and in assay [3] was > 100 µM in each case. For the same compound, in assay [4], the IC50 is > 250 µM.

Take `COc1ccc(C(=O)N/N=C/c2ccc(O)c3ncccc23)cc1` [Compound 1, N′-((8-hydroxyquinolin-5-yl)methylene)-4-methoxybenzohydrazide]: the EC50 is 85 µM in assay [1], 87 µM in assay [2] and > 100 µM in assay [3]. For the same compound, the IC50 in assay [4] was > 250 µM.

With `O=[N+]([O-])c1ccc(O)c2ncccc12` [Nitroxoline, reference compound], the EC50 stood at 2.8 µM in assay [1] (Klebsiella pneumoniae), 9.5 µM in assay [2] (setting [5]) and 2.5 µM in assay [3]. The IC50 in assay [4] was > 250 µM.

As for `O=C1CN(/N=C/c2ccc(O)c3ncccc23)C(=O)N1` [Compound 2, 1-(((8-hydroxyquinolin-5-yl)methylene)amino)imidazolidine-2,4-dione], the EC50 in assay [1] (Klebsiella pneumoniae) is > 100 µM; in assay [2] (setting [5]), 37 µM; in assay [3] it was > 100 µM. In addition, the IC50 in assay [4] is > 250 µM.

As to `COc1ccc(C(=O)N/N=C/c2ccc([N+](=O)[O-])o2)cc1` [Compound 20, 4-methoxy-N′-((5-nitrofuran-2-yl)methylene)benzohydrazide], the values for the EC50 in assay [1] (Klebsiella pneumoniae), in assay [2] (setting [5]) and in assay [3] were > 100 µM, 8.1 µM and > 100 µM, respectively. Moreover, the IC50 in assay [4] is > 250 µM.

Turning to `O=C(N/N=C/c1ccc(O)c2ccccc12)c1ccccc1` [Compound 30, N′-((4-hydroxynaphthalen-1-yl)methylene)benzohydrazide], the EC50 in assay [1] (Klebsiella pneumoniae) is > 100 µM; in assay [2] (setting [5]), 88 µM; in assay [3], > 100 µM. Moreover, in assay [4], the IC50 was > 250 µM.

As to `O=C(N/N=C/c1ccc([N+](=O)[O-])o1)c1ccccc1Oc1ccccc1` [Compound 23, N′-((5-nitrofuran-2-yl)methylene)-2-phenoxybenzohydrazide], the values for the EC50 in assay [1] (Klebsiella pneumoniae), in assay [2] (setting [5]) and in assay [3] were > 100 µM, 5.2 µM and > 100 µM, respectively.

These data come from patent publication US20220009914A1, “Analogs of Nitrofuran Antibiotics to Combat Resistance” (The Trustees of Indiana University, priority 2020, published 2022).
